What all share (format): cell-based, human
For test [1], the system named is MV-4-11 (biphenotypic B myelomonocytic leukaemia) cell line. Kind of test: MTT antiproliferative assay on MV-4-11 cells. The settings on record: for IC50 / MV-4-11 IC50: MTT assay, Neg = negative in the concentration used. How it is done: (§1) The applied human cell lines such as MV-4-11 (biphenotypic B myelomonocytic leukaemia), A549 (lung adenocarcinoma), Du-145 (prostate), Hs294T (melanoma), MCF-7 (breast adenocarcinoma) and MCF-10A (normal mammary gland) were obtained from the American Type Culture Collection (ATCC, Rockville, MD, USA). The all cell lines are maintained at the Cell Culture Collection of the Institute of Immunology and Experimental Therapy (Wrocław, Poland). The cells were plated in 96-well plates (Sarstedt, Newton, MA, USA) at a density of 1 × 10^4 cells per well in 100 µL of appropriate culture medium overnight. Biphenotypic B myelomonocytic leukaemia (MV-4-11) cells were cultured in RPMI 1640 medium (Gibco, Scotland, UK) with GlutaMAX (Thermo-Fisher Scientific, Warsaw, Poland) adjusted to contain 1.0 mM sodium pyruvate (Sigma-Aldrich, Chemie GmbH, Steinheim, Germany). Human lung adenocarcinoma (A549) cells were cultured in mixture RPMI 1640 and Opti-MEM medium (Gibco, Scotland, UK) supplemented with GlutaMAX (ThermoFisher Scientific, Warsaw, Poland) and 2mM L-glutamine adjusted to contain 1.0 mM sodium pyruvate. Human prostate (Du-145) and human breast adenocarcinoma (MCF-7) cells were cultured in Eagle medium (IIET, Wrocław, Poland), supplemented with 2 mM L-glutamine adjusted to contain 1.0 mM sodium pyruvate. Human melanoma (Hs294T) cells were cultured in Dulbecco medium (Gibco, Scotland, UK) supplemented with 2 mM L-glutamine. The normal human mammary gland cells (MCF-10A) were cultured in Ham’s F-12 medium containing 2 mM L-glutamine, 5% horse serum, epidermal growth factor EGF (100 μL/100 mL of medium), hydrocortisone (1 mL/ 100 mL of medium), insulin (100 μL/100 mL of medium) and cholera toxin (0.1 mL/100 mL of medium). All applied culture media except MCF-10A were supplemented with 10% of FBS (MV-4-11 cultured with FBS derived from Sigma-Aldrich, Chemie GmbH, Steinheim, Germany, the other cell lines FBS HyClone Thermo-Fisher Scientific, Warsaw, Poland) and streptomycin (100 µg/mL), penicillin (100 U/mL) (both from Polfa, Tarchomin, Poland). The tested cell lines were grown at 37 °C in humid atmosphere saturated with 5% CO2. In our studies were used two assays for determination the cytotoxic activity in vitro of triterpene derivatives. By dissolving 1 mg of each tested compound in 100 µL of DMSO, stock solutions at a 10 mg/mL were obtained. Next, the stock solutions were diluted in appropriate culture medium to reach the required concentrations of compounds ranging from 0.1 to 100 µg/mL. The MTT assay was used for the cytotoxicity screening against biphenotypic B myelomonocytic leukaemia (MV-4-11). The SRB assay was performed for adherent cells such as A549, Du-145, Hs294T, MCF-7 and MCF-10A. Both assays were carried as described by Wietrzyk et al.. The triterpenes in given concentration were examined in triplicates in each experiment, which was repeated 3 times. The results of anticancer activity in vitro were presented as an IC50 in µM. Cisplatin and betulin 1 were used as reference substances.
Background: Tetrazolium dyes change colour on reduction, which living cells bring about.

Test [2] has as its system Hs294T (melanoma). Kind of test: SRB antiproliferative assay on Hs294T cells. The note with it: SRB assay. How it is done:
as §1

In test [3] the test system is MCF-10A (normal mammary gland). Nature of the test: SRB antiproliferative assay on MCF-10A cells. The settings on record: Neg = negative in the concentration used. As to the method: as §1
Background: In SRB staining, fixed cells bind dye roughly in proportion to their protein.

For test [4], the system named is Du-145 (prostate). Nature of the test: SRB antiproliferative assay on Du-145 cells. The note with it: SRB assay. As to the method:
as §1

For test [5], the system named is A549 (lung adenocarcinoma). Kind of test: SRB antiproliferative assay on A549 cells. How it is done:
as §1

For test [6], the system named is MCF-7 (breast adenocarcinoma). Nature of the test: SRB antiproliferative assay on MCF-7 cells. The settings on record: SRB assay. As to the method: as §1

Like-named read-outs stand apart in the source and are kept apart here.

`C=C(C)C1CC[C@]2(CO)CC[C@]3(C)C(CCC4[C@@]5(C)CC[C@H](OC(=O)C#CC6CC6)C(C)(C)C5CC[C@]43C)C12` (some centres unmarked) [Compound 7, 3-(3-Cyclopropyl-2-propynoyl)betulin] displayed an IC50 in test [1] (Homo sapiens, MV4-11) of 62.4 ± 9.9 µM.
As for `C=C(C)C1CC[C@]2(CO)CC[C@]3(C)C(CCC4[C@@]5(C)CC[C@H](OC(=O)CC)C(C)(C)C5CC[C@]43C)C12` (some centres unmarked) [Compound 5, 3-Propanoylbetulin], 38.9 ± 11.8 µM corresponded to half-maximal inhibition in test [1] (Homo sapiens, MV4-11) (IC50).
For the compound `N.N.[Cl][Pt][Cl]` [Cisplatin, reference compound], the IC50 was determined as 6.3 ± 1.3 µM in test [2]; 14.7 ± 1 µM in test [3]; 1 ± 0.27 µM in test [1]; 1.6 ± 0.3 µM in test [4]; 4.3 ± 1.3 µM in test [5]; 7.7 ± 0.3 µM in test [6].
`C=CCOC(=O)O[C@H]1CC[C@@]2(C)C(CC[C@]3(C)C2CCC2C4C(C(=C)C)CC[C@]4(C=O)CC[C@]23C)C1(C)C` (some centres unmarked) [Compound 22, 3-Allyloxycarbonylbetulinic aldehyde]: the IC50 in test [1] (Homo sapiens, MV4-11) was 38.3 ± 4.6 µM.
In test [1] (Homo sapiens, MV4-11), `C=C(C)C1CC[C@]2(C=O)CC[C@]3(C)C(CCC4[C@@]5(C)CC[C@H](OC(=O)CC)C(C)(C)C5CC[C@]43C)C12` (some centres unmarked) [Compound 15, 3-Propanoylbetulinic aldehyde] displayed an IC50 of 71.8 ± 22.9 µM.
On the same count and under the same terms, under `C=C(C)C1CC[C@]2(C=O)CC[C@]3(C)C(CCC4[C@@]5(C)CC[C@H](OC(=O)C#CC)C(C)(C)C5CC[C@]43C)C12` (some centres unmarked) [Compound 19, 3-(2-Butynoyl)betulinic aldehyde] stands 35.9 ± 4.9 µM; under `C=C(C)C1CC[C@]2(C=O)CC[C@]3(C)C(CCC4[C@@]5(C)CC[C@H](OC(C)=O)C(C)(C)C5CC[C@]43C)C12` (some centres unmarked) [Compound 3, 3-acetylbetulinic aldehyde, reference compound], 35 ± 12.8 µM.
`C#CCOC(=O)O[C@H]1CC[C@@]2(C)C(CC[C@]3(C)C2CCC2C4C(C(=C)C)CC[C@]4(CO)CC[C@]23C)C1(C)C` (some centres unmarked) [Compound 13, 3-Propargyloxycarbonylbetulin]: the half-maximal inhibitory concentration (IC50) in test [2] (Homo sapiens, Hs 294T) worked out at 82.7 ± 8.4 µM; in test [1] (Homo sapiens, MV4-11), 7.4 ± 1.7 µM; in test [4] (Homo sapiens, DU-145), 95.1 ± 16.8 µM; in test [5] (Homo sapiens, A549) it was 14.9 ± 2.5 µM; in test [6] (Homo sapiens, MCF7) it was 28.9 ± 4.6 µM. For the same compound, in test [3], the “Antiproliferative Activity IC50 MCF-10A” value is recorded as “Neg”.
Consider `C=C(C)C1CC[C@]2(C=O)CC[C@]3(C)C(CCC4[C@@]5(C)CC[C@H](OC(=O)OCC)C(C)(C)C5CC[C@]43C)C12` (some centres unmarked) [Compound 20, 3-Ethoxycarbonylbetulinic aldehyde], for which half-maximal inhibition in test [1] (Homo sapiens, MV4-11) (IC50) was put at 25.1 ± 7.2 µM.
As for `C#CCOC(=O)O[C@H]1CC[C@@]2(C)C(CC[C@]3(C)C2CCC2C4C(C(=C)C)CC[C@]4(C=O)CC[C@]23C)C1(C)C` (some centres unmarked) [Compound 23, 3-Propargyloxycarbonylbetulinic aldehyde], half-maximal inhibition in test [1] (Homo sapiens, MV4-11) (IC50) required 30 ± 6.1 µM.
As to `C=C(C)C1CC[C@]2(CO)CC[C@]3(C)C(CCC4[C@@]5(C)CC[C@H](OC(=O)C#Cc6ccccc6)C(C)(C)C5CC[C@]43C)C12` (some centres unmarked) [Compound 8, 3-Phenylpropynoylbetulin], in test [1], the “MV-4-11 IC50” value is given as “Neg”.
For the compound `C=C(C)C1CC[C@]2(CO)CC[C@]3(C)C(CCC4[C@@]5(C)CC[C@H](OC(=O)OCC)C(C)(C)C5CC[C@]43C)C12` (some centres unmarked) [Compound 10, 3-Ethoxycarbonylbetulin], 20 ± 1.5 µM corresponded to half-maximal inhibition in test [1] (Homo sapiens, MV4-11) (IC50).
Turning to `C=C(C)C1CC[C@]2(C=O)CC[C@]3(C)C(CCC4[C@@]5(C)CC[C@H](OC(=O)C#Cc6ccccc6)C(C)(C)C5CC[C@]43C)C12` (some centres unmarked) [Compound 18, 3-Phenylpropynoylbetulinic aldehyde], the “MV-4-11 IC50” value in test [1] is given as “Neg”.
The compound `C=C(C)C1CC[C@]2(C=O)CC[C@]3(C)C(CCC4[C@@]5(C)CC[C@H](OC(=O)C#CC6CC6)C(C)(C)C5CC[C@]43C)C12` (some centres unmarked) [Compound 17, 3-(3-Cyclopropyl-2-propynoyl)betulinic aldehyde] gave an IC50 in test [1] (Homo sapiens, MV4-11) of 86.7 ± 42.8 µM.
For the compound `C=C(C)[C@@H]1CC[C@]2(CO)CC[C@]3(C)[C@H](CC[C@@H]4[C@@]5(C)CC[C@H](O)C(C)(C)[C@@H]5CC[C@]43C)[C@@H]12` [Betulin 1, betulin], the half-inhibitory concentration (IC50) in test [2] (Homo sapiens, Hs 294T) is 44.1 ± 7.2 µM; in test [3] (Homo sapiens, MCF-10A), 124 ± 41.6 µM; in test [1] (Homo sapiens, MV4-11), 8.1 ± 2.9 µM; in test [4] (Homo sapiens, DU-145), 44 ± 19.4 µM; in test [5] (Homo sapiens, A549), 8.6 ± 0.7 µM; in test [6] (Homo sapiens, MCF7), 26.2 ± 6.5 µM.
In the case of `C=C(C)C1CC[C@]2(CO)CC[C@]3(C)C(CCC4[C@@]5(C)CC[C@H](OC(C)=O)C(C)(C)C5CC[C@]43C)C12` (some centres unmarked) [Compound 2, 3-acetylbetulin, reference compound], the IC50 in test [1] (Homo sapiens, MV4-11) was determined as 27.2 ± 5.9 µM.
Compound `C=C(C)C1CC[C@]2(C=O)CC[C@]3(C)C(CCC4[C@@]5(C)CC[C@H](OC(=O)OCCC)C(C)(C)C5CC[C@]43C)C12` (some centres unmarked) [Compound 21, 3-Propoxycarbonylbetulinic aldehyde] returned an IC50 in test [1] (Homo sapiens, MV4-11) of 80.2 ± 14.4 µM.
In test [1] (Homo sapiens, MV4-11), `C=C(C)C1CC[C@]2(CO)CC[C@]3(C)C(CCC4[C@@]5(C)CC[C@H](OC(=O)OCCC)C(C)(C)C5CC[C@]43C)C12` (some centres unmarked) [Compound 11, 3-Propoxycarbonylbetulin] came in with an IC50 of 30.8 ± 1.5 µM.
`C=CCOC(=O)O[C@H]1CC[C@@]2(C)C(CC[C@]3(C)C2CCC2C4C(C(=C)C)CC[C@]4(CO)CC[C@]23C)C1(C)C` (some centres unmarked) [Compound 12, 3-Allyloxycarbonylbetulin] returned an IC50 in test [1] (Homo sapiens, MV4-11) of 20.1 ± 4.7 µM.
In the case of `C=CC(=O)O[C@H]1CC[C@@]2(C)C(CC[C@]3(C)C2CCC2C4C(C(=C)C)CC[C@]4(CO)CC[C@]23C)C1(C)C` (some centres unmarked) [Compound 6, 3-(2-Propenoyl)betulin], the IC50 in test [3] (Homo sapiens, MCF-10A) came to 120 ± 15.3 µM; in test [1] (Homo sapiens, MV4-11), 4.2 ± 1.2 µM; in test [4] (Homo sapiens, DU-145), 84.5 ± 39.4 µM; in test [5] (Homo sapiens, A549), 23.3 ± 1.8 µM; in test [6] (Homo sapiens, MCF7), 45.9 ± 3.8 µM.
With `C#CCCOC(=O)O[C@H]1CC[C@@]2(C)C(CC[C@]3(C)C2CCC2C4C(C(=C)C)CC[C@]4(CO)CC[C@]23C)C1(C)C` (some centres unmarked) [Compound 14, 3-(3-Butynyloxycarbonyl)betulin], the IC50 stood at 164 ± 15.8 µM in test [2] (Homo sapiens, Hs 294T); 8.9 ± 0.9 µM in test [1] (Homo sapiens, MV4-11); 126 ± 13.2 µM in test [4] (Homo sapiens, DU-145); 33.8 ± 2.8 µM in test [5] (Homo sapiens, A549); 39.2 ± 6.9 µM in test [6] (Homo sapiens, MCF7). The “Antiproliferative Activity IC50 MCF-10A” value in test [3] is given as “Neg”.
`C=CC(=O)O[C@H]1CC[C@@]2(C)C(CC[C@]3(C)C2CCC2C4C(C(=C)C)CC[C@]4(C=O)CC[C@]23C)C1(C)C` (some centres unmarked) [Compound 16, 3-(2-Propenoyl)betulinic aldehyde]: the IC50 in test [2] (Homo sapiens, Hs 294T) came out at 74.4 ± 7.3 µM; in test [3] (Homo sapiens, MCF-10A), 113 ± 11.7 µM; in test [1] (Homo sapiens, MV4-11) it was 5.8 ± 1.8 µM; in test [4] (Homo sapiens, DU-145) it was 67.1 ± 4.6 µM; in test [5] (Homo sapiens, A549), 15.1 ± 5 µM; in test [6] (Homo sapiens, MCF7) it was 60.4 ± 4.4 µM. In addition, the “fold more potent than 3-acetylbetulinic aldehyde 3 against MV-4-11” value in test [1] (MV-4-11 cells) is 6 fold.
In test [1] (Homo sapiens, MV4-11), `C#CCCOC(=O)O[C@H]1CC[C@@]2(C)C(CC[C@]3(C)C2CCC2C4C(C(=C)C)CC[C@]4(C=O)CC[C@]23C)C1(C)C` (some centres unmarked) [Compound 24, 3-(3-Butynyloxycarbonyl)betulinic aldehyde] had an IC50 of 28.3 ± 7.4 µM.

For orientation: IC50 means the concentration at which inhibition is half-maximal. Low readings indicate greater potency in that assay, high ones weaker potency in that assay.

These data come from article PMC6471197, “Biological Activity and In Silico Study of 3-Modified Derivatives of Betulin and Betulinic Aldehyde” (International Journal of Molecular Sciences, 2019).
